{"source": "paper PMC5880808", "about": "“A lever-like transduction pathway for long-distance chemical- and mechano-gating of the mechanosensitive Piezo1 channel” (Nature Communications, 2018)", "key": {"[1]": {"molecular_target": "T1, C-terminal extracellular domain (CED; 2214–2457) (Mus musculus, UniProt E2JF22)", "T1 construct": "C-terminal extracellular domain (CED; 2214–2457); made in house", "T1 sequence (E2JF22 2214-2457)": "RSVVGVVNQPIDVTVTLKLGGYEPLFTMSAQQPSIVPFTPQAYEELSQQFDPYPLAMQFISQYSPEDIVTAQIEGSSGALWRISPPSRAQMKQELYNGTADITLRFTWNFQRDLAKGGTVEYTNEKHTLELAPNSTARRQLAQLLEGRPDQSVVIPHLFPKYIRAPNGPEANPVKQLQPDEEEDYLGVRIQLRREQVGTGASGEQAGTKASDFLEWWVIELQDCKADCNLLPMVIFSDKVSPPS", "assay": "SPR binding to immobilized purified protein", "conditions": "without C12E10 detergent", "method": "(§1) Real-time binding and analysis by SPR were conducted on BIAcore T200 instrument (GE Healthcare) at 25 °C. Proteins were immobilized on a research-grade CM5 sensor chip by amine-coupling methods. During the pH scouting process, 10 mM sodium acetate at various pH including 4.0, 4.5, 5.0, and 5.5 and protein concentrations varying between 10 and 100 μg/ml were screened before immobilization. Except pH 4.5 for mPiezo1-(1–2190), pH 5.0 was used for all other proteins, including mPiezo1, CED, Δ15-16, and Δ19-20. All proteins were diluted to 50 μg/ml in buffer containing 10 mM sodium acetate at the abovementioned pH, 0.026% C12E10 detergent, and 150 mM NaCl, except that the soluble CED proteins, which were diluted in 150 mM NaCl without detergent. During the immobilization process, the CM5 sensor was activated with NHS first, allowing the amine-containing proteins to be coupled to the sensor through NHS. Each CM5 sensor had 4 flow cells, and the flow cells 1 and 3 were often left blank as a reference. Diluted Piezo1 wild-type or mutant proteins (50 μg/ml) in their respective buffers were immobilized on the flow cell 2 or flow cell 4 to the similar level as indicated by the “response bound” parameter.\n(§2) For data collection, compounds at various concentrations were diluted in a running buffer containing 1× PBS, 0.026% detergent C12E10, and 0.05% Surfactant P20 (GE Healthcare Bio-Sciences AB) and injected over the flow cells with at a 30 μl/min flow rate. The proteins and the compounds were allowed to associate for 180 s and then dissociate for 180 s. Data were analyzed with the BIAcore T200 evaluation software by fitting to a 1:1 affinity-binding model."}, "[2]": {"molecular_target": "T2, mPiezo1 (Mus musculus, UniProt E2JF22)", "T2 construct": "The full-length mPiezo1 has 2547 amino acids in each monomer; expressed in transfected cells; host or cells: HEK293T", "assay": "Inside-out patch recording of single-channel activity, compound in pipette solution", "type": "cell-based", "conditions": "−80 mV", "excerpt": "For inside-out patch-clamp recordings using an Axopatch 200B amplifier (Axon Instruments), the “extracellular” pipette solution consists of (in mM) the following: 130 NaCl, 5 KCl, 10 HEPES, 1 CaCl2, 1 MgCl2, and 10 TEA-Cl (pH 7.3 with NaOH), and the intracellular “bath” solution contains (in mM) the following: 140 KCl, 10 HEPES, 1 MgCl2, and 10 glucose (pH 7.3 with KOH). All experiments were done at room temperature. Currents were sampled at 20 kHz using Clampex 10.4 software (Axon Instruments) and filtered at 2 kHz. Additional offline filtering of 1 kHz was applied to the recordings for display. Single-channel activity in the presence or absence of Jedi or Yoda1 was continuously recorded for 5 min at −80 mV. The single-channel open probability (NPo) and unitary conductance of mPiezo1 were analyzed using the pClamp software built-in features. Current amplitudes of individual cells recorded at −80 mV were calculated from Gaussian fits to the current amplitude histograms."}, "[3]": {"molecular_target": "T3, L1342A/L1345A mutant proteins (Mus musculus, UniProt E2JF22, L1342A/L1345A)", "T3 construct": "The full-length mPiezo1 has 2547 amino acids in each monomer; GST (PreScission site) (cleaved yes); made in house; host or cells: HEK293T", "T3 sequence (E2JF22 whole entry L1342A/L1345A)": "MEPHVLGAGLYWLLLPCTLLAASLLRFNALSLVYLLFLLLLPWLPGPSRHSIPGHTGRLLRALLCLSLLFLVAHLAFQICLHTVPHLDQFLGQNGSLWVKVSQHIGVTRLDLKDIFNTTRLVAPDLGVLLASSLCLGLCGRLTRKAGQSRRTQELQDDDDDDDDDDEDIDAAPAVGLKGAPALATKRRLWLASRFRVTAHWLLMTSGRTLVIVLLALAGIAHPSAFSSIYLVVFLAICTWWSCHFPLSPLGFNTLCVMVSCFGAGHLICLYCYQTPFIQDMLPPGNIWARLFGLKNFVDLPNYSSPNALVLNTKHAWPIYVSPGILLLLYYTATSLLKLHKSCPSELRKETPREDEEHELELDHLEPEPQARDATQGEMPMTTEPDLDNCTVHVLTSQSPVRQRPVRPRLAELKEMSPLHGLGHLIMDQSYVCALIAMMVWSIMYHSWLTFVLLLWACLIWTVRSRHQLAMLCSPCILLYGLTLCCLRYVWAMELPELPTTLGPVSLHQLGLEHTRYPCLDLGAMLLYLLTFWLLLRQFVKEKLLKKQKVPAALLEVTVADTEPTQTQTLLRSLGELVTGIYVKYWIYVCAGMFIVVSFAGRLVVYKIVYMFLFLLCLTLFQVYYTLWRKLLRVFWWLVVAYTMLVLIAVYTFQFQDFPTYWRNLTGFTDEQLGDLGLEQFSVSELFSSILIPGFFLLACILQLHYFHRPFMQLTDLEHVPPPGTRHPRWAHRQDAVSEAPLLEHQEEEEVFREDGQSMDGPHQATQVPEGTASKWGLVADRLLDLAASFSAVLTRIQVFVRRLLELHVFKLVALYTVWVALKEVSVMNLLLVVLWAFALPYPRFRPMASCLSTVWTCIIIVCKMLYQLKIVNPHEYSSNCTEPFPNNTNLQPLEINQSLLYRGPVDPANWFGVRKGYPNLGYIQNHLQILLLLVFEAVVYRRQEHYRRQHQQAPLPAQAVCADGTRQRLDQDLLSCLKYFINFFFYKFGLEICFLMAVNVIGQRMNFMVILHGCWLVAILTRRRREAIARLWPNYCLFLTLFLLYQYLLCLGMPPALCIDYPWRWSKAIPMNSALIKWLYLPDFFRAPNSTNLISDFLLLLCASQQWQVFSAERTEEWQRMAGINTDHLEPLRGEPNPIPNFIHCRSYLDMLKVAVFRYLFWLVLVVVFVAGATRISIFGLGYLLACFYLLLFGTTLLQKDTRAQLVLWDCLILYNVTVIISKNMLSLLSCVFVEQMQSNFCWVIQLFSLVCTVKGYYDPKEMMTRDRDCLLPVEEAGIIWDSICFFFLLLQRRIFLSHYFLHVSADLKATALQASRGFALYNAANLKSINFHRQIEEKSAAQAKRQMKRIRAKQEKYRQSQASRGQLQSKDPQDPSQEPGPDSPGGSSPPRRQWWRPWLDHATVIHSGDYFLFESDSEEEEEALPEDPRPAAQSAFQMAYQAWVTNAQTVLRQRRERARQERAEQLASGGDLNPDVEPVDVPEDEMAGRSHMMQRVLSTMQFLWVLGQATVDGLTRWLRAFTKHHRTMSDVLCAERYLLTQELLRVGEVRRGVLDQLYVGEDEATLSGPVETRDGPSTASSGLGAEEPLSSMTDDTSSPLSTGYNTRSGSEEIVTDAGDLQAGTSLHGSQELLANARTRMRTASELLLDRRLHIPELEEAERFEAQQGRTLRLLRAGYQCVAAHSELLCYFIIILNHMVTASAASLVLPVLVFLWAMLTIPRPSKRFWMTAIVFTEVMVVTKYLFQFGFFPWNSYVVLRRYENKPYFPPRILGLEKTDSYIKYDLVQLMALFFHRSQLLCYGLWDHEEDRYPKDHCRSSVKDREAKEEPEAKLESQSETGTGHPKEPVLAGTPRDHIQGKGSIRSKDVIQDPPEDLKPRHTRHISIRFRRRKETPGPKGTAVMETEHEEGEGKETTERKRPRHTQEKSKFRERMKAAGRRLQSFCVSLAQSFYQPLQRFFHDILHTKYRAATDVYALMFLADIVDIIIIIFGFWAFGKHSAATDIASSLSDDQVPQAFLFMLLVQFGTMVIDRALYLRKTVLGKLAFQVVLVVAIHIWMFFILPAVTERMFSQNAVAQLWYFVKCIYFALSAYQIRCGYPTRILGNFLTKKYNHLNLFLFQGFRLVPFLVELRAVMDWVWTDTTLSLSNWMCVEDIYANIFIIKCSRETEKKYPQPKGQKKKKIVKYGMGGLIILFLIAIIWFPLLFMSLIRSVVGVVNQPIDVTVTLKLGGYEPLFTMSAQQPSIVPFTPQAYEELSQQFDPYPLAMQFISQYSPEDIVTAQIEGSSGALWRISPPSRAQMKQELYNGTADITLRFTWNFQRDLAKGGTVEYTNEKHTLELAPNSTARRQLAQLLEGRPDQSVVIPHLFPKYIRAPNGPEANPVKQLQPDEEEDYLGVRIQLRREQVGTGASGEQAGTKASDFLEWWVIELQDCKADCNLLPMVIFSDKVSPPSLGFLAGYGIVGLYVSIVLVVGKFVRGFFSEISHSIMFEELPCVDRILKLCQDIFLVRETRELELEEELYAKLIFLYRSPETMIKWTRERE", "assay": "SPR binding to purified L1342A/L1345A mutant protein", "method": "as §1, §2"}, "[4]": {"molecular_target": "T4, mPiezo1 L1342A/L1345A mutant (Mus musculus, UniProt E2JF22, L1342A/L1345A)", "T4 construct": "The full-length mPiezo1 has 2547 amino acids in each monomer; expressed in transfected cells", "T4 sequence (E2JF22 whole entry L1342A/L1345A)": "as above", "assay": "Patch clamp (chemical-induced and stretch-induced currents), L1342A/L1345A mutant", "type": "cell-based", "conditions": "Piezo1-KO-HEK cells for chemical-induced currents", "method": "Protocols for HEK293T cell culture, transient transfection, and patch-clamp experiments with an Axopatch 200B amplifier (Axon Instruments) or HEKA EPC10 were essentially similar to how previously described[6],[8]. […] The extracellular solution was composed of (in mM) 133 NaCl, 3 KCl, 2.5 CaCl2, 1 MgCl2, 10 HEPES (pH 7.3 with NaOH), and 10 glucose. All experiments were carried out at room temperature. Currents were sampled at 20 kHz, filtered at 2 kHz using the Clampex 10.4 software (Axon Instruments) or Patchmaster software. Leak currents before mechanical stimulations were subtracted offline from the current traces.\nStock solutions of Jedi1 (100 mM), Jedi2 (100 mM), and Yoda1 (30 mM) were solubilized in DMSO and diluted to the desired final concentrations as indicated in the figure legends using external or internal solutions. […] In other conditions, the compounds were directly added to the recording chamber or pipette solution, and the currents were recorded within 10 min. […]\nStretch-activated currents were recorded in the cell-attached patch-clamp configuration as previously described. […] Stretch-activated channels were recorded at a holding potential of −80 mV with pressure steps from 0 to −100 mm Hg (−10 mm Hg increments), and 4–11 recording traces were averaged per cell for analysis. […]"}}}
{"smiles": "Cc1oc(-c2cccs2)cc1C(=O)O", "note": "[Jedi2]", "values": [{"measurement": "binding to purified CED proteins (SPR)", "setting": "[1]", "result": "none"}, {"measurement": "fold change of the open probability (NPo)", "setting": "[2]", "result": "significant increase in the opening probability"}, {"measurement": "binding to purified L1342A/L1345A mutant proteins (SPR)", "setting": "[3]", "result": "retained the ability to bind"}]}
{"smiles": "Clc1cccc(Cl)c1CSc1nnc(-c2cnccn2)s1", "note": "[Yoda1, reference compound]", "values": [{"measurement": "binding to purified CED proteins (SPR)", "setting": "[1]", "result": "none"}, {"measurement": "fold change of the open probability (NPo)", "setting": "[2]", "result": "14.8 ± 0.6", "unit": "fold"}, {"measurement": "inward currents, stretching-current relationship and P50 of the L1342A/L1345A mutant", "setting": "[4]", "result": "neither elicited inward currents"}, {"measurement": "binding to purified L1342A/L1345A mutant proteins (SPR)", "setting": "[3]", "result": "retained the ability to bind"}]}
{"smiles": "Cc1oc(-c2ccccc2)cc1C(=O)O", "note": "[Jedi1]", "values": [{"measurement": "binding to purified CED proteins (SPR)", "setting": "[1]", "result": "none"}, {"measurement": "fold change of the open probability (NPo)", "setting": "[2]", "result": "9.6 ± 2.4", "unit": "fold"}, {"measurement": "inward currents, stretching-current relationship and P50 of the L1342A/L1345A mutant", "setting": "[4]", "result": "neither elicited inward currents"}, {"measurement": "binding to purified L1342A/L1345A mutant proteins (SPR)", "setting": "[3]", "result": "retained the ability to bind"}]}
